PubChem BioAssay (NCI)
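In this assay, cells in 96-well plates receive the compound at five concentrations for 48 hours. Endpoints are linearly interpolated between the surrounding concentrations. The concentration for 50% growth inhibition is given as GI50. At the TGI there is no net growth.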

Legend:
Test in all cases: inhibition of tumour cell growth, NCI panel, 48 h
[1] = test system: M14 melanoma
[2] = test system: NCI-H23 lung
[3] = test system: LXFL 529 NSCLC
[4] = test system: NCI-H522 lung
[5] = test system: XF 498 CNS
[6] = test system: 786-0 renal
[7] = test system: SNB-75 CNS
[8] = test system: HCT-15 colon
[9] = test system: OVCAR-4 ovarian
[10] = test system: HCC-2998 colon

CC1=C(c2cc(C(=O)Nc3cccc(C(F)(F)F)c3)ncn2)Sc2ccccc2N1
TGI [1]: > 100 µM
TGI [2]: > 100 µM
TGI [3]: > 100 µM
TGI [4]: > 100 µM
TGI [5]: > 100 µM
TGI [6]: > 100 µM
TGI [7]: > 100 µM
TGI [8]: > 100 µM
TGI [9]: > 100 µM

COc1ccc(/C(=N/NC(N)=O)C(c2ccc(OC)cc2)C2C(=O)Oc3ccccc32)cc1 (stereo unspecified)
TGI [1]: > 100 µM
TGI [2]: > 100 µM
TGI [3]: > 100 µM
TGI [4]: > 100 µM
TGI [5]: > 100 µM
TGI [6]: > 100 µM
TGI [7]: > 100 µM
TGI [8]: > 100 µM
TGI [10]: > 100 µM
TGI [9]: > 100 µM

CC(C)(C)C(=O)O[C@@H]1COC2C(O)COC21 (stereo partly specified)
TGI [1]: > 100 µM
TGI [2]: > 100 µM
TGI [3]: > 100 µM
TGI [4]: > 100 µM
TGI [5]: > 100 µM
TGI [6]: > 100 µM
TGI [7]: > 100 µM
TGI [10]: > 100 µM
TGI [9]: > 100 µM

COc1cc(-c2cc(=O)c3cc(C)c(C)c(C(=O)O)c3o2)cc(OC)c1OC
TGI [1]: > 100 µM
TGI [2]: > 100 µM
TGI [3]: > 100 µM
TGI [4]: > 100 µM
TGI [5]: > 100 µM
TGI [6]: > 100 µM
TGI [7]: 55.9 µM
TGI [8]: > 100 µM
TGI [10]: > 100 µM
TGI [9]: > 100 µM

Cc1ccc2[nH]c3c(ncc4[nH]c5ccccc5c43)c2c1
TGI [1]: 35.8 µM
TGI [2]: > 10 µM
TGI [3]: 33.3 µM
TGI [4]: 39.6 µM
TGI [5]: 35.8 µM
TGI [6]: 31.5 µM
TGI [7]: 28.5 µM
TGI [10]: 30.2 µM
TGI [9]: 37.9 µM

Cc1cc(C)c(S(=O)(=O)ONC(=O)OC(C)(C)C)c(C)c1
TGI [1]: > 100 µM
TGI [2]: > 100 µM
TGI [3]: > 100 µM
TGI [4]: > 100 µM
TGI [5]: > 100 µM
TGI [6]: > 100 µM
TGI [7]: > 100 µM
TGI [8]: > 100 µM
TGI [10]: > 100 µM
TGI [9]: > 100 µM

O=C(NNC(=O)c1cc(/C=C/c2cccc([N+](=O)[O-])c2)[nH]c(=S)n1)Nc1ccc(Cl)cc1
TGI [1]: > 100 µM
TGI [2]: > 100 µM
TGI [3]: > 100 µM
TGI [4]: 81.8 µM
TGI [5]: 81.4 µM
TGI [6]: > 100 µM
TGI [7]: > 100 µM
TGI [8]: > 100 µM
TGI [10]: > 100 µM

Cc1nc(Nc2ccc([N+](=O)[O-])cc2)sc1C(/C=C/c1ccc(N(C)C)cc1)=N/NC(=O)c1ccccc1
TGI [1]: > 100 µM
TGI [2]: > 100 µM
TGI [3]: > 100 µM
TGI [4]: > 100 µM
TGI [5]: > 100 µM
TGI [6]: > 100 µM
TGI [7]: > 100 µM
TGI [8]: > 100 µM
TGI [10]: > 100 µM
TGI [9]: > 100 µM

N#CC1(C=O)c2ccccc2C=CN1C(=O)c1ccccc1 (stereo unspecified)
TGI [1]: 92.4 µM
TGI [2]: > 100 µM
TGI [3]: > 100 µM
TGI [4]: > 100 µM
TGI [5]: 69.6 µM
TGI [6]: > 100 µM
TGI [7]: 66.9 µM
TGI [8]: > 100 µM
TGI [10]: > 100 µM
TGI [9]: > 100 µM

Cn1c2c(c3ccccc31)CCN(CCCCN1CCN(c3cccc(Cl)c3)CC1)C2=O
TGI [1]: 10.7 µM
TGI [2]: 27.4 µM
TGI [3]: 23.7 µM
TGI [4]: 25.6 µM
TGI [5]: 28 µM
TGI [6]: 29.6 µM
TGI [7]: 9.61 µM
TGI [8]: 29.7 µM
TGI [9]: 32.2 µM

O=C(CC(=O)C1CCOC1=O)C(=O)Nc1ccc(Cl)cc1Cl (stereo unspecified)
TGI [1]: > 100 µM
TGI [2]: > 100 µM
TGI [3]: > 100 µM
TGI [4]: > 100 µM
TGI [5]: > 100 µM
TGI [6]: > 100 µM
TGI [7]: > 100 µM
TGI [8]: > 100 µM
TGI [10]: > 100 µM
TGI [9]: > 100 µM

O=C(NCCCCCCCCNC(=O)c1cccc2ccccc12)c1cccc2ccccc12
TGI [1]: > 87 µM
TGI [2]: > 79.6 µM
TGI [3]: > 100 µM
TGI [4]: > 46.4 µM
TGI [5]: 20.9 µM
TGI [6]: 23.3 µM
TGI [7]: 13.2 µM
TGI [8]: > 100 µM
TGI [10]: > 100 µM
TGI [9]: 19 µM

CCCCCCCCCCCCN(O)C(=O)c1ccccc1
TGI [1]: 82.2 µM
TGI [2]: 52.2 µM
TGI [3]: > 100 µM
TGI [4]: > 100 µM
TGI [5]: > 100 µM
TGI [6]: 49.2 µM
TGI [7]: 82.7 µM
TGI [8]: > 100 µM
TGI [10]: > 100 µM

Nc1nc(N)c2nc(CNc3ccc(C(=O)NC(CCCNC(=O)c4ccccc4C(=O)O)C(=O)O)cc3)cnc2n1 (stereo unspecified)
GI50 [1]: 0.0226 µM
TGI [1]: > 100 µM
GI50 [2]: 0.00401 µM
TGI [2]: > 100 µM
TGI [3]: > 100 µM
GI50 [4]: 0.016 µM
TGI [4]: > 100 µM
TGI [5]: > 100 µM
GI50 [6]: 0.00054 µM
TGI [6]: > 100 µM
TGI [7]: > 100 µM
GI50 [8]: 0.00105 µM
TGI [8]: > 100 µM
GI50 [10]: 0.00132 µM
TGI [10]: > 100 µM
GI50 [9]: > 100 µM
TGI [9]: > 100 µM
